Assay [1] concerns M. smegmatis GPM260 (overproducing both Alr and Ddl). As to the kind of experiment: MIC by microdilution method. In kind it is cell-based, Mycobacterium smegmatis. To be noted: for MIC: Mycolicibacterium smegmatis, M-ADC-TW, 48 h; for susceptibility of GPM260 compared with parent strain GPM14 / MIC: strain GPM260. The method, then:
(§1) MICs were determined by a microdilution method described previously (Takiff et al., 1996) with minor modifications. Briefly, M. smegmatis cells were grown in M-ADC-TW to mid-exponential phase (optical density at 600 nm, 0.6 to 1.0). Approximately 10^5 CFU in 0.1 ml were inoculated in triplicate onto 96-well microplates containing serial twofold dilutions of inhibitory compounds. Plates were incubated at 37° C. and examined daily. The MIC was defined as the minimal concentration of the drug or inhibitor that prevented visible bacterial growth after 48 h. Each MIC represents the consistent result from at least three independent cultures. Amikacin, DCS, βCDA, ethambutol, and vancomycin (all from Sigma) were prepared in sterile deionized water. Rifabutin (Amersham Pharmacia) was prepared in dimethyl sulfoxide (Fisher Scientific, St. Louis, Mo.). All further dilutions of each antibiotic were prepared in growth medium. Inhibition of colony formation by DCS was evaluated as described previously in Caceres et al., (1997), which is incorporated herein by reference. Appropriate dilutions of exponentially growing M. smegmatis cells were plated onto agar containing 0 to 1,200 μg of DCS ml^−1. Colonies were counted after 5 days of incubation at 37° C. Statistical analysis was conducted using the SAS general linear model procedure (SAS Institute, Cary, N.C.).
(In broth dilution the organism is exposed to a series of concentrations in liquid medium.)

For assay [2], the system named is M. smegmatis strains. Nature of the assay: Drug susceptibility compared across strains. In kind it is cell-based, Mycobacterium smegmatis. The conditions noted are these: mc^2155, GPM259, GPM265, GPM14.
Assay [3] concerns M. smegmatis mc^2155. Nature of the assay: MIC by microdilution method. In kind it is cell-based, Mycobacterium smegmatis.
For another assay, the system named is M. smegmatis GPM2. As to the kind of experiment: MIC by microdilution method. It is filed as cell-based, Mycobacterium smegmatis. To be noted: Mycolicibacterium smegmatis.
Assay [4] deals with M. smegmatis GPM14 (overproducing Alr). Nature of the assay: MIC by microdilution method. In kind it is cell-based, Mycobacterium smegmatis. The conditions noted are these: for MIC: Mycolicibacterium smegmatis, 48 h. The procedure:
as §1

Assay [5] concerns M. smegmatis GPM259 (overproducing Ddl). As to the kind of experiment: MIC by microdilution method. It is filed as cell-based, Mycobacterium smegmatis. To be noted: for MIC: Mycolicibacterium smegmatis, 48 h. The method, then: as §1
Assay [6] deals with M. smegmatis GPM265 (overproducing M. tuberculosis Ddl). Nature of the assay: microbe, parasite or virus in culture. In kind it is cell-based, Mycobacterium smegmatis. The conditions noted are these: for MIC: Mycolicibacterium smegmatis, 48 h.
The target in the next assay is M. smegmatis Ddl (Mycolicibacterium smegmatis, UniProt Q9ZGN0). It is filed as biochemical, Mycobacterium smegmatis.
Another assay addresses T1, M. tuberculosis Ddl (Mycobacterium tuberculosis, UniProt P9WP31).
T1 sequence (P9WP31 1-373): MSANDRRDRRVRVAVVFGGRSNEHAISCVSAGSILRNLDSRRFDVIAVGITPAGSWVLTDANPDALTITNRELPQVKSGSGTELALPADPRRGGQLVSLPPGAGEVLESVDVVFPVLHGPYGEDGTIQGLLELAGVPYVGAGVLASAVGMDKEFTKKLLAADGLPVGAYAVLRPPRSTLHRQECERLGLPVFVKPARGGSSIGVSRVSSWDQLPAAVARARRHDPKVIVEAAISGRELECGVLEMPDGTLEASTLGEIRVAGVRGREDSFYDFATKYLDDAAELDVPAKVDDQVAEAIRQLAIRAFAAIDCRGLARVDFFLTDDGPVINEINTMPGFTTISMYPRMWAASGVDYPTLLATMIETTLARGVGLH
In kind it is biochemical.

Assay [7] deals with M. smegmatis strains. As to the kind of experiment: Inhibition of colony formation on agar. In kind it is cell-based, Mycobacterium smegmatis. To be noted: agar with 0 to 1,200 μg of DCS ml^−1, 5 days. The procedure: as §1
A further assay has as its target Alr. To be noted: Streptococcus faecalis purified Alr; cited from earlier work.
Another assay deals with T2, Ddl (UniProt Q47758).
T2 sequence (Q47758 1-348): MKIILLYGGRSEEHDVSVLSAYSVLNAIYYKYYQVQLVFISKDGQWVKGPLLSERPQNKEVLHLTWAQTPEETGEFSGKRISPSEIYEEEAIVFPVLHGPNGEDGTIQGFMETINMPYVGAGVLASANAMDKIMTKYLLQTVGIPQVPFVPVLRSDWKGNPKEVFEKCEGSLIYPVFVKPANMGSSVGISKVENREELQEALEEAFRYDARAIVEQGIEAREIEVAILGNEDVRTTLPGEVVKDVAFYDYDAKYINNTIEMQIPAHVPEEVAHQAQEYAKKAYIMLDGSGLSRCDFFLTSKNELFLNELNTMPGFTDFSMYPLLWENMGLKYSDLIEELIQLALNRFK
To be noted: Streptococcus faecalis purified Ddl; cited from earlier work.

The subject of assay [8] is M. smegmatis mc^2155. As to the kind of experiment: Intracellular alanine pools by reverse-phase HPLC. The conditions noted are these: 75 μg ml^−1 DCS, 2 h.
Procedure: M. smegmatis cells were grown in minimal medium until exponential phase and split into two subcultures, and DCS was added to a final concentration of 75 μg ml^−1 to one of the subcultures. After 2 h of incubation, cells were harvested at 4° C. by centrifugation, washed twice with ice-cold double-distilled water, and concentrated 50-fold. Cells were sonicated in a salt-ice-water bath with a Vibra-Cell model VC600 sonicator (Sonic and Materials, Inc., Danbury, Conn.) for 10 min at 80% power output and 50% duty cycle. The lysate was centrifuged at 4° C. for 30 min at 30,000×g to remove bacterial debris. Protein was removed from the supernatant by serial passages through YM-10 and YM-3 Centricon concentrators (Millipore Corp., Bedford, Mass.). Determination of the abundance of individual amino acids was performed at the Amino Acid Geochronology Laboratory of Northern Arizona University (Flagstaff, Ariz.) by a reverse-phase high-performance liquid chromatography (HPLC) procedure described previously (Kaufman and Manley, 1998). This procedure is able to detect nine pairs of L- and D-amino acids in the subpicomole range. […] Thus, the abundance of each amino acid was calculated as the area under the corresponding peak and expressed relative to this pool.
The subject of another assay is M. smegmatis GPM14. As to the kind of experiment: Intracellular alanine pools by reverse-phase HPLC. To be noted: 75 μg ml^−1 DCS, 2 h.
The subject of a further assay is M. smegmatis GPM259. As to the kind of experiment: Intracellular alanine pools by reverse-phase HPLC. The conditions noted are these: 75 μg ml^−1 DCS, 2 h.
For another assay, the system named is M. smegmatis GPM260. As to the kind of experiment: Intracellular alanine pools by reverse-phase HPLC. The conditions noted are these: 75 μg ml^−1 DCS, 2 h.

These results are taken from patent US7371571B2, “Recombinant mycobacteria overexpressing D-alanine ligase gene and uses therefore” (priority 2002, dated 2008).

pKi: −log10 of the molar value. Converted amounts (≈) assume the structure as drawn. “And” between values parts separate entries of the source, which are not always exact repeats. Equal entries are not always repeated. “Also recorded” adds a separate entry of the source. Where two headings read alike, the source gives them in different places.

Sequence of M. smegmatis Ddl (Q9ZGN0 whole entry): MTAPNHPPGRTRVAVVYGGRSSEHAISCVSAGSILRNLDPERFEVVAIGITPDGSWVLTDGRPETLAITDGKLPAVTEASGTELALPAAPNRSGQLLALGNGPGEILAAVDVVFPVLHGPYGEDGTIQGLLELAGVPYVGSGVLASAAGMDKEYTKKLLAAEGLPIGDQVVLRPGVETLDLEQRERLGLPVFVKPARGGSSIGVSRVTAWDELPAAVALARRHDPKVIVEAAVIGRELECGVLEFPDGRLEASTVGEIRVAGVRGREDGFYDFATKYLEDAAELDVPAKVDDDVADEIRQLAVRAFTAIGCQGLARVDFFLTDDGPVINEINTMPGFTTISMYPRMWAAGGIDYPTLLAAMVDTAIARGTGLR

On to `CC[C@@H](CO)NCCN[C@@H](CC)CO` [ethambutol], for which the “susceptibility of GPM260 compared with parent strain GPM14” value in assay [1] is on record as “identical”. Moreover, in the assay with M. smegmatis strains [2], the “susceptibilities of strains overproducing Alr and/or Ddl compared with wild type” value (“susceptibilities … compared with wild type” for short) is recorded as “identical”.
Turning to `NCC[C@H](O)C(=O)N[C@@H]1C[C@H](N)[C@@H](O[C@H]2O[C@H](CN)[C@@H](O)[C@H](O)[C@H]2O)[C@H](O)[C@H]1O[C@H]1O[C@H](CO)[C@@H](O)[C@H](N)[C@H]1O` [amikacin], the “susceptibility of GPM260 compared with parent strain GPM14” value in assay [1] is “identical”. For the same compound, the “susceptibilities … compared with wild type” value in the assay with M. smegmatis strains [2] is listed as “identical”.
On to `CO[C@H]1/C=C/O[C@@]2(C)Oc3c(C)c(O)c4c(c3C2=O)C2=NC3(CCN(CC(C)C)CC3)NC2=C(NC(=O)/C(C)=C\C=C\[C@H](C)[C@H](O)[C@@H](C)[C@@H](O)[C@@H](C)[C@H](OC(C)=O)[C@@H]1C)C4=O` [rifabutin], for which the “susceptibility of GPM260 compared with parent strain GPM14” value in assay [1] is “identical”. In addition, in the assay on M. smegmatis strains [2], the “susceptibilities … compared with wild type” value is “identical”.
In general, pKi refers to the negative decadic logarithm of the Ki, by convention in mol/L. Take `NC1CONC1=O` (stereo not drawn) [DCS, 4-amino-3-isoxazolidinone]: the MIC with M. smegmatis mc^2155 [3] (Mycolicibacterium smegmatis, strain mc^2155, M-ADC-TW, 48 h, read-out: MIC) is 75 µg/mL (≈ 735 µM); in the assay with M. smegmatis mc^2155 [3] (strain mc^2155, M-ADC-TW, 48 h), 75.0 µg/mL (≈ 735 µM); with M. smegmatis GPM2 (strain GPM2, M-ADC-TW, 48 h, read-out: MIC), 75 µg/mL (≈ 735 µM); in assay [4] it was 300 µg/mL (≈ 2940 µM); in assay [5], 150 µg/mL (≈ 1470 µM); in [1], 600 µg/mL (≈ 5880 µM). Moreover, in assay [6], the MIC came out at 150 µg/mL (≈ 1470 µM). Besides, the “MIC relative to that for mc^2155” value in assay [5] (strain GPM259) and in [6] was “twofold greater” in each case. Further, the level of resistance result in assay [1] (strain overexpressing both the alr and ddl genes) was “eightfold-higher”. The compound further yielded a Ddl activity inhibited at M. smegmatis Ddl of 10 to 15%. Further, on M. smegmatis Ddl, the “Ddl enzyme activity inhibited” value is “Approximately 50%”. The “inhibition of Ddl enzyme” value at M. smegmatis Ddl and on M. tuberculosis Ddl was “inhibited by DCS in a concentration-dependent manner” in each case. Besides, at M. tuberculosis Ddl, the “percentage of inhibition higher than in mc^2155 and GPM259 extracts” value is listed as “approximately 10%”. In addition, the “resistance of GPM259 and GPM265 on solid agar” value with M. smegmatis strains [7] is “more resistant to DCS than the wild-type mc^2155 but less resistant than the Alr-overproducing strain GPM14”. For the same compound, the pKi was 4.70 on Alr and 3.05 at Ddl. The “excess of L- over D-alanine” value was “eightfold” with M. smegmatis mc^2155 [8] and “three-fold” with M. smegmatis GPM14. Also, the “increase of L-alanine-to-D-alanine molar ratio” value in the assay on M. smegmatis mc^2155 [8] (versus untreated) is given as 3.5 fold. Besides, the “excess of L-alanine” value is 18- to 20 fold and ~20 fold in the assay with M. smegmatis GPM259; 18- to 20 fold and ~20 fold in the assay with M. smegmatis GPM260.
As for `N[C@H](CCl)C(=O)O` [βCDA, β-chloro-D-alanine], the MIC against M. smegmatis mc^2155 [3] (Mycolicibacterium smegmatis, MC^2155, 48 h) turned out to be 25 µg/mL (≈ 202 µM); with M. smegmatis GPM2 (GPM2, 48 h), 25 µg/mL (≈ 202 µM); in [4], 100 µg/mL (≈ 809 µM); in assay [5] (strain GPM259, M-ADC-TW, read-out: MIC) it was 25 µg/mL (≈ 202 µM); in assay [1] it was 100 µg/mL (≈ 809 µM); in [6], 25 µg/mL (≈ 202 µM). Besides, the “MIC relative to those for strains with wild-type levels of Alr” value in [4] (strain GPM14) is on record as “fourfold higher”. In assay [1], the “susceptibility of GPM260 compared with parent strain GPM14” value is reported as “identical”.
For the compound `CN[C@H](CC(C)C)C(=O)N[C@H]1C(=O)N[C@@H](CC(N)=O)C(=O)N[C@H]2C(=O)N[C@H]3C(=O)N[C@H](C(=O)N[C@H](C(=O)O)c4cc(O)cc(O)c4-c4cc3ccc4O)[C@H](O)c3ccc(c(Cl)c3)Oc3cc2cc(c3O[C@@H]2O[C@H](CO)[C@@H](O)[C@H](O)[C@H]2O[C@H]2C[C@](C)(N)[C@H](O)[C@H](C)O2)Oc2ccc(cc2Cl)[C@H]1O` [vancomycin], in [1], the “susceptibility of GPM260 compared with parent strain GPM14” value was “identical”. In the assay on M. smegmatis strains [2], the “susceptibilities … compared with wild type” value is listed as “does not have an effect on the susceptibility; also recorded: identical”.
